Laboratory results taken from patent US9067896B2, “Crystalline forms of 3-(2,6-dichloro-3,5-dimethoxy-phenyl)-1-{6-[4-(4-ethyl-piperazin-1-yl) -phenylamino]-pyrimidin-4-yl}-1-methyl-urea and salts thereof” (Novartis AG, priority 2009, dated 2015).
Where a name gives a salt, the structure may show the parent alone. Read-outs that look alike come from different tables or passages of the source.

Key:
[1] = Hygroscopicity from DVS sorption/desorption isotherms; assay type: physicochemical
Method: Hygroscopicity was measured from sorption/desorption isotherms using Surface Measurement System DVS-1 at 25±0.5° C. Samples were evaluated at various humidities including 75%, 85%, and 95%.
The free base (anhydrous and monohydrate) and its phosphate salt (form A) were subjected to sorption and desorption cycle using a VTI brand instrument. The solids were collected after the experiment and analyzed. […] The DVS plots are shown in FIGS. 4A (free base, anhydrous), 4B (phosphate salt (form A) and 4C (free base, monohydrate). The maximum water uptake for the phosphate salt (form A) was less than 2% (i.e. 0.7%) at 25° C. up to 95% relative humidity (rh) (see Table 9). The maximum water uptake for the monohydrate was less than 1.4% at 25° C. up to 95% RH. The monohydrate with an approximate water content of 3% could not be completely dried during the experiment but the water that could be removed was reversibly reabsorbed. The plateau of existence of the monohydrate form is found to be within 10% and 95% RH with a slight hysteresis at the second desorption cycle.

[2] = Pharmacokinetics / bioavailability in rats; assay type: in vivo; conditions: for concentration at 8 h: read-out: Clast [μmol/L ± SE]; for Cmax: read-out: Cmax [μmol/L ± SE]
Method: The higher water solubility of the phosphate salt compared to the free base (and other acid salts, as described above) led to the development of a solution formulation (or composition), which would not be feasible with the free base due to solubility restrictions. For this experiment, the phosphate salt was prepared as follows. In a glass vial, 10.7 mg of the free base was dissolved in 4 ml THF. Phosphoric acid (1.76 ml) in acetone (0.01M) was added. The mixture was warmed to 50° C. for about 2 minutes. The vial was left open for partial evaporation at room temperature. Overnight, a suspension was formed, which was filtered yielding about 5.5 mg of an off-white powder. The bioavailabilities, in rats, of the active agents (the free base and its phosphate salt), formulated variously, are tabulated below (Table 10).

[3] = Polymorphic stability by XRPD (equilibration, crystallization, evaporation, precipitation, compression, granulation); assay type: physicochemical; set-up: key to XRPD Result, crystallization by evaporation: —: no change detected; conditions: for XRPD Result, crystallization by evaporation: unstirred; for XRPD after crystallization from hot saturated solution: dissolved at 60° C., cooled in ice bath
Method: Slurries of samples were stirred at high speed for 24 hours at 25±0.5° C., filtered, and the solid collected analyzed by XRPD.
About 20 mg of the phosphate salt (form A) was equilibrated with 2 ml of a variety of solvents for at least 24 h at room temperature. Then the solution was filtered and the residue dried overnight at 50° C. under house vacuum. The solid obtained was investigated by XRPD. […]
About 20 mg of the phosphate salt (form A) was also equilibrated at about 50° C. with 2 ml solvent for at least 24 h. Then the solution was filtered and the residue dried overnight at 50° C. under house vacuum. The solid obtained was investigated by XRPD.
About 20 mg of the phosphate salt (form A) was dissolved in 2 ml solvent at 60° C. The solution was filtered. The clear filtrate obtained was cooled in an ice bath and agitated. The precipitate was collected on a filter, dried and investigated by XRPD.
About 20 mg of the phosphate salt (form A) was mixed with 2 ml solvent at 25° C. After stirring overnight, the solution was filtered. The filtrate was placed under nitrogen flow to evaporate the solvent. The residual solid was collected and investigated. The above evaporation was performed without stirring. Upon evaporation from THF/water (1:1) without stirring, a solid with XRPD pattern similar to that of the B form (see FIG. 1C), was obtained once. Subsequently, under these conditions, amorphous material, rather than form B, was obtained.
The same experiments (as described above for the 25° C. evaporation) were performed at 50° C.
Two different solvent combinations were tested. The phosphate salt (form A) was dissolved in DMSO where its solubility was high. A solvent (the anti-solvent) in which the form A was highly insoluble was added to the solution. The precipitate was collected on a filter, dried, and investigated by XRPD.
The phosphate salt (form A, 300 mg) was compressed for 5 minutes at 4000 pounds with a hydraulic press (diameter of the tablets 8 mm).
A solvent (water or ethanol) was added drop wise to the phosphate salt (form A) placed in a mortar until the solid in the mortar was sufficiently wet, and ground using a pestle until a paste-like consistency was obtained. The paste was dried at around 40° C. and under reduced pressure for >8 hours.

[4] = Intrinsic dissolution rate; assay type: physicochemical; conditions: 37° C., disc 200 rpm, 290 nm
Method: The intrinsic dissolution rate measurements were carried out in 0.5 cm^2 VanKel punch and die assemblies at a pellet pressure of 2000 pounds. […]
The intrinsic dissolution rate was determined for the phosphate salt in water, pH=6.8 and 0.1N HCl, and for the free base monohydrate in pH=6.8, 4.5 and 0.1N HCl. The measurements were carried out on a VanKel instrument using a Cary UV/VIS spectrophotometer (Table 2).

Solid state stability = assay type: physicochemical; conditions: one week at 80° C., sealed containers and 75% relative humidity, alone and with excipients as 1% mixture
Method: In the solid state, the samples were stressed for one week at 80° C., in sealed containers and under 75% relative humidity. […] The amount of degradation products of the anhydrous free base as assessed by HPLC was 1% or less (based on peak area), while the degradation of the phosphate salt accounted for 1.4% or less.

[5] = Relative humidity 5%, after the 95% step
[6] = Relative humidity 5%, before the 95% step
[7] = Relative humidity 25%, after the 95% step
[8] = Relative humidity 25%, before the 95% step
[9] = Relative humidity 50%, after the 95% step
[10] = Relative humidity 50%, before the 95% step
[11] = Relative humidity 75%, after the 95% step
[12] = Relative humidity 75%, before the 95% step
[13] = Relative humidity 85%, after the 95% step
[14] = Relative humidity 85%, before the 95% step
[15] = rat, in vivo, po, 8.57 mg/kg, rats, phosphate salt p.o., supension (water containing 0.5% HPMC) [8.57 mg/kg]
[16] = rat, in vivo, po, 10 mg/kg, pH 4.7, rats, p.o., solution (PEG300/acetate buffer pH 4.7 1:1) [10 mg/kg]
[17] = rats, p.o., solution (PEG300/acetate buffer pH 4.7 1:1) [10 mg/kg]
[18] = rats, phosphate salt p.o., supension (water containing 0.5% HPMC) [8.57 mg/kg]

CCN1CCN(c2ccc(Nc3cc(N(C)C(=O)Nc4c(Cl)c(OC)cc(OC)c4Cl)ncn3)cc2)CC1 [Phosphate salt (form A)]
weight gain due to water absorption (DVS) ([1]; 75% RH, listed as phosphate salt): < 1%
weight gain due to water absorption (DVS) ([1]; 85% RH): < 1%
weight gain due to water absorption (DVS) ([1]; 95% RH, listed as phosphate salt): < 2%
Adsorption Weight Gain (%) ([1]; Relative humidity 0%): 0.000%
Desorption Weight Gain (%) ([1]; Relative humidity 0%): 0.000%
Adsorption Weight Gain (%) [1, 5]: 0.000%
Desorption Weight Gain (%) [1, 5]: 0.048%
Adsorption Weight Gain (%) [1, 6]: 0.016%
Desorption Weight Gain (%) [1, 6]: 0.091%
Adsorption Weight Gain (%) [1, 7]: 0.177%
Desorption Weight Gain (%) [1, 7]: 0.447%
Adsorption Weight Gain (%) [1, 8]: 0.165%
Desorption Weight Gain (%) [1, 8]: 0.507%
Adsorption Weight Gain (%) [1, 9]: 0.334%
Desorption Weight Gain (%) [1, 9]: 0.705%
Adsorption Weight Gain (%) [1, 10]: 0.309%
Desorption Weight Gain (%) [1, 10]: 0.738%
Adsorption Weight Gain (%) [1, 11]: 0.467%
Desorption Weight Gain (%) [1, 11]: 1.275%
Adsorption Weight Gain (%) [1, 12]: 0.437%
Desorption Weight Gain (%) [1, 12]: 1.022%
Adsorption Weight Gain (%) [1, 13]: 0.520%
Desorption Weight Gain (%) [1, 13]: 1.421%
Adsorption Weight Gain (%) [1, 14]: 0.495%
Desorption Weight Gain (%) [1, 14]: 1.245%
Adsorption Weight Gain (%) ([1]; Relative humidity 95%): 0.653%
Desorption Weight Gain (%) ([1]; Relative humidity 95%): 1.547%
hygroscopicity (in words) ([1]; listed as phosphate salt): slightly hygroscopic
bioavailability relative to the free base ([2]; oral administration): ~2 fold
AUC(0-inf) [2, 15]: 1.23 µM·h
Tmax [2, 15]: 3 h
concentration at 8 h [2, 15]: 0.062 ± 0.006 µmol/L
Cmax [2, 15]: 0.15 ± 0.031 µmol/L
half-life ([2]; rat, in vivo, po, 8.57 mg/kg, rats, phosphate salt p.o., supension (water containing 0.5% HPMC) [8.57 mg/kg], read-out: t1/2 terminal elimination (converted)): 4.4 h
AUC(0-inf) [2, 16]: 2.52 µM·h
Tmax [2, 16]: 4 h
concentration at 8 h [2, 16]: 0.148 ± 0.018 µmol/L
Cmax [2, 16]: 0.263 ± 0.083 µmol/L
AUC (0-∞) dose ^A [(h · μmol/L)/(mg/kg)] [2, 17]: 0.25 (h · μmol/L)/(mg/kg)
BAV f [%] [2, 17]: 51%
t1/2 terminal elimination [2, 17]: 4.8 h
tlast [2, 17]: 8 h
AUC (0-∞) dose ^A [(h · μmol/L)/(mg/kg)] [2, 18]: 0.14 (h · μmol/L)/(mg/kg)
BAV f [%] [2, 18]: 29 ± 3%
tlast [2, 18]: 8 h
XRPD after compression ([3]; 300 mg, 5 minutes at 4000 pounds, hydraulic press): No change of crystalline modification
XRPD after crystallization by evaporation ([3]; 25° C., solution stirred during evaporation): form A was consistently obtained
XRPD after crystallization by evaporation ([3]; 25° C., without stirring, 1:1 solutions of water with ethanol, 2-propanol, acetone, tetrahydrofuran): amorphous material was obtained
XRPD after crystallization by evaporation ([3]; 50° C., solution stirred): Form A was also obtained
XRPD Result, crystallization by evaporation ([3]; 50° C., 2-propanol/water 1:1): —
XRPD Result, crystallization by evaporation ([3]; 50° C., Acetone/water 1:1): —
XRPD Result, crystallization by evaporation ([3]; 50° C., Acetonitrile/water 1:1): Amorphous
XRPD Result, crystallization by evaporation ([3]; 50° C., Ethanol/water 1:1): Amorphous
XRPD Result, crystallization by evaporation ([3]; 50° C., Methanol/water 1:1): —
XRPD Result, crystallization by evaporation ([3]; 50° C., Tetrahydrofuran/water 1:1): —
XRPD after equilibration with solvents ([3]; at least 24 h at about 50° C., solvents of Table 7): No new XRPD pattern was observed
XRPD after equilibration with solvents ([3]; at least 24 h at room temperature, solvents of Table 6): No new XRPD pattern was observed
XRPD after crystallization from hot saturated solution ([3]; 1:1 solutions of water with methanol, ethanol, 2-propanol, acetone, tetrahydrofuran): No change in polymorphic form
XRPD after crystallization from hot saturated solution ([3]; DMSO): form change noted
XRPD after precipitation by addition of anti-solvent ([3]; dissolved in DMSO, anti-solvents methanol, ethanol, isopropanol, acetone, acetonitrile, THF, ethyl acetate, propyl acetate, toluene, methyl t-butyl ether, 1,4-dioxane, methylene chloride): No change in Form
XRPD after granulation ([3]; wetted with water or ethanol, ground, dried at around 40° C.): no changes in the XRPD spectra
Intrinsic DR value ([4]; HCl 0.1N): 1.0661 mg/min/cm^2
Intrinsic DR value ([4]; Water): 0.3279 mg/min/cm^2
Intrinsic DR value ([4]; pH = 6.8): 0.0056 mg/min/cm^2
amount of degradation products by HPLC (peak area) (Solid state stability): ≤ 1.4%
